In patent publication US12351574B2, “Selective ligands for modulation of GIRK channels” (Northeastern University, priority 2018, dated 2025):

Target: T1, GIRK1/4 (Homo sapiens, UniProt P48544+P48549)
T1 sequence (P48549 1-501): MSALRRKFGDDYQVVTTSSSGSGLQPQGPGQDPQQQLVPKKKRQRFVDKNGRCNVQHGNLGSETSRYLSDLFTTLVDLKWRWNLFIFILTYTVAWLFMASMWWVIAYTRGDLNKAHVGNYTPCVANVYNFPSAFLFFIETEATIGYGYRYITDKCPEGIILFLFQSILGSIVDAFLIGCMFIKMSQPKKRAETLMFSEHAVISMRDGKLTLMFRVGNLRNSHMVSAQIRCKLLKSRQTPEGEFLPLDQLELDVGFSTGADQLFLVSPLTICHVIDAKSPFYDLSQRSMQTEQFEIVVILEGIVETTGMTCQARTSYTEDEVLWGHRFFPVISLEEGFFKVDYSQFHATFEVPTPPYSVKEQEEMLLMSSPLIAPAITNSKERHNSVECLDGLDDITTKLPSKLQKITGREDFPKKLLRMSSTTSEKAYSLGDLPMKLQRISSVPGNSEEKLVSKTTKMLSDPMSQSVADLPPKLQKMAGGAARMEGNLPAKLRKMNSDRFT
T1 sequence (P48544 1-419): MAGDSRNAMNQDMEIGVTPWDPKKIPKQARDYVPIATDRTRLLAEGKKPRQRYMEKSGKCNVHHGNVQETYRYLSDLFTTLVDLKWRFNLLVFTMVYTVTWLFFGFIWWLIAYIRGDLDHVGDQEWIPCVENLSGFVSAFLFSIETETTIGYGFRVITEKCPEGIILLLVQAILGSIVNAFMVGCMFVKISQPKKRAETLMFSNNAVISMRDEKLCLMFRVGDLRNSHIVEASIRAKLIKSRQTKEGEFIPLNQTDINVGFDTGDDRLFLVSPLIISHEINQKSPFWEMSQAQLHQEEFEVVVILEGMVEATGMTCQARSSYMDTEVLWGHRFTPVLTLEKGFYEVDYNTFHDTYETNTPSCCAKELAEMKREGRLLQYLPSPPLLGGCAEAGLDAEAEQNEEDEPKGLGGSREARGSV
Assay: current inhibition by light-activated phosphatase 5-ptaseOCRL, HEK293 whole-cell patch-clamp, GIRK1/4
Type: cell-based
Design: expressed in transfected cells
Conditions: HEK-293 cells
Text: The inventors next pursued whole-cell patch-clamp experiments to further validate the model predictions and excised-patch results. Expression of a light-activated phosphatase that upon exposure to blue light dephosphorylates PI(4,5)P2 to PI(4)P and inhibits GIRK currents allowed recording of macroscopic currents in the absence and presence of ML297 and the two brain-specific GAT compounds. […] Since GAT1508 and ML297 only bind GIRK1 or GIRK1-like (i.e. “FD-containing”, “FD”=mimics the contribution of GIRK1 residues F137 and D173, see Example 2) subunits resulting in corresponding changes in channel-PIP2 interactions and channel activity, the inventors next sought to compare channel subunit specific interactions with PIP2 for subunits bound to the ligand (P-FD) versus those not bound to the ligand (P-WT) (FIGS. 19, 38A).
Culture of HEK293 cells: HEK293-T cells were obtained from ATCC and maintained in DMEM medium supplemented with 10% FBS and 1% penicillin and streptomycin (Hyclone). For patch-clamp studies, cells were seeded on glass coverslips and transfected 24-hours later using a polyethylenimine solution (1 mg/ml) at a ratio of 8 μl per μg of DNA. To study GIRK-currents, cells were transfected with 0.75 μg each of plasmids encoding GIRK1, GIRK2 or GIRK4 as indicated. In the optogenetic experiments, cells were co-transfected with plasmids encoding 5-ptaseOCRL and CIBN-CAAX, as previously described. 5-ptaseOCRL and CIBN-CAAX were a kind gift from the DeCamilli lab, Yale CT. All experiments were performed at room temperature 24-36 hours post transfection. […]
Patch-clamp recording: Whole-cell currents were recorded with an Axopatch 200B amplifier (Molecular Devices) controlled via a USB-interface (National Instruments) using WinWCP software (University of Strathclyde). […] The barium-sensitive component of the current, observed when cells were perfused with the high-K^+ buffer, was analyzed and was determined by perfusing 5 mM BaCl2 in the high-K^+ buffer at the end of each experiment. […]

Structure (SMILES) | protection of GIRK1/4 currents from inhibition by the light-activated phosphatase (in words)
Cc1cc(NC(=O)Nc2ccc(Br)s2)n(-c2ccccc2)n1 [GAT1508, 1-(5-bromothiophen-2-yl)-3-(3-methyl-1-phenyl-1H-pyrazol-5-yl)urea] | not
Cc1cc(NC(=O)Nc2ccc(C)s2)n(-c2ccccc2)n1 [GAT1521, 1-(3-methyl-1-phenyl-1H-pyrazol-5-yl)-3-(5-methylthiophen-2-yl)urea] | not
Cc1cc(NC(=O)Nc2ccc(F)c(F)c2)n(-c2ccccc2)n1 [ML297, reference compound] | some protection
